Data published in patent US20220326255A1, “METHODS OF MONITORING MUCOSAL HEALING” (MediBeacon Inc., priority 2021, published 2022).
Each block holds one compound with its values, some of them ahead of it.

Assays:
[1] = Cumulative urinary percent recovery of enterally administered tracer, crossover study in healthy adults and adults with Crohn's disease; format: in vivo, human; settings: for percent of administered dose recovered in urine: Crohn's disease patients
Procedure: (§1) A single center, randomized, open label, crossover study was performed to evaluate a solution containing 18.6 mg/mL of a pyrazine derived fluorophore (MB-102) at 1.5 or 3.0 mg/kg versus DSAT (L, 1000 mg and R, 200 mg) administered enterally.
(§2) To compare the dynamic ranges of the fluorophore and DSAT clearances, healthy adults and adults with evidence of small bowel Crohn's disease on magnetic resonance enterography were enrolled. Participants were randomized to receive either the fluorophore tracer or the sugars on treatment day 1, followed by the other tracer 3-7 days later. Urine was collected at baseline and 1, 2, 4, 6, 8, 10, and 12 hours after tracer ingestion. The cumulative urinary percent recovery of the fluorophore tracer was calculated using an Ultra-Performance Liquid Chromatography system with fluorescence detection and cumulative L, R, and L:R ratios using a normal phase, isocratic HPLC-tandem ESI mass spectrometry.

[2] = system: rat model of small bowel injury; assay: Percent of administered dose of MB-102 recovered in urine, rat model of small bowel injury; format: in vivo; settings: rats with bowel injury compared to controls; oral gavage
Procedure: (§3) To this end, MB-102 was tested in the rat model of small bowel injury (FIGS. 4A and 4B). Transdermal measurements were initiated prior to oral gavage of MB-102 and transdermal measurements, alongside urine, were collected over time. Based on urine samples the Percent of Administered Dose Recovered was higher in rats with bowel injury than controls (FIG. 4A).

[3] = MB-102 plasma concentration (HPLC) after oral dose in healthy and Crohn's disease participants; format: in vivo, human; settings: for concentration at 360 min / concentration at 720 min: human, plasma, po
Procedure: In addition, two healthy participants and one participant with Crohn's disease were administered an oral dose of MB-102, and blood samples were collected at 6 and 12 hours post-administration. MB-102 plasma concentration levels were determined by HPLC.

[4] = Safety and tolerability of orally administered MB-102 in the human study; format: in vivo
Procedure: as §1, §2
5 healthy adults and 4 adults with Crohn's disease completed the study without serious adverse events. […] At 12 hours post-dose in the healthy participants, approximately 0.5% to 1.0% of the administered dose was recovered, reflecting the inability of MB-102 to transverse the intestinal barrier when gut permeability is normal. […]

[5] = system: rat model of bowel injury; assay: Transdermal fluorescence detection of fluorophore after oral gavage, rat model of bowel injury; format: in vivo; settings: monitored continuously
Excerpt: To probe the ability to assess gut function in a specimen-free and real-time manner, a dual-wavelength transdermal fluorescence detection system was utilized to monitor MB-301 and MB-404 in the rat model of bowel injury. […] Following anaesthetization, the fluorescence detection system was affixed with medical adhesive to a depilated area on the back of each rat. Transdermal fluorescence monitoring was then initiated to detect baseline fluorescence prior to delivery of MB-301 and MB-404 by oral gavage, and was monitored continuously. The concentration of MB-301 as determined by transdermal fluorescence measurements remained low in both injured and control animals (FIG. 2, dashed lines) as this fluorophore is comparatively rapidly absorbed by the small intestine and subsequently cleared. […] Therefore, transdermal detection of MB-301 and MB-404 fluorescence can be used to provide a non-invasive, real-time indication of gut health.
as §3

[6] = system: rat model of small bowel injury; assay: Ratio of MB-404 to MB-301 in urine (HPLC) after oral gavage, rat model of small bowel injury; format: in vivo; settings: injured rats (indomethacin-induced bowel injury) compared to control rats
Excerpt: DSAT was mimicked using two fluorophores with similar molecular weights to mannitol and lactulose, MB-301 and MB-404 (see Table 2).
Furthermore, like both sugars used in the DSAT, MB-301 and MB-404 are not metabolized and are excreted by glomerular filtration, with neither (or negligible) tubular secretion nor reabsorption. To test the ability to distinguish between healthy and diseased gut, a rat model of small bowel injury was used with two injured and two control rats. The day after indomethacin-induced bowel injury, the rats were anaesthetized, a catheter was inserted for urine collection, and both fluorophores were delivered by oral gavage. Urine was collected prior to oral gavage and at a series of time points post-gavage. Concentrations of MB-301 and MB-404 in urine were determined using HPLC, and the ratio of their concentrations was plotted over time in FIG. 1.

[7] = Control Participants, 360 min post-administration
[8] = Control Participants, 720 min post-administration

percent of administered dose recovered in urine [1]: wide range
Compound: OC[C@H]1O[C@@H](O[C@@H]2[C@@H](CO)OC(O)(CO)[C@H]2O)[C@H](O)[C@@H](O)[C@H]1O (mixture of isomers) [lactulose, reference compound]

Plasma Concentration [3, 7]: 21.3 ng/mL
Plasma Concentration [3, 8]: 16.7 ng/mL
concentration at 360 min [3, 7]: 21.2 ng/mL
concentration at 720 min [3, 8]: 16.8 ng/mL
concentration at 360 min ([3]; Crohn's Disease Participant, 360 min post-administration): 63.1 ng/mL
concentration at 720 min ([3]; Crohn's Disease Participant, 720 min post-administration): 26.5 ng/mL
percent of administered dose recovered in urine [1]: wide range
urine excretion ([1]; diseased participants with respect to controls, oral administration): increased
MB-102 urine recovery ([1]; patients in remission when the study was performed): near normal values
Compound: Nc1nc(C(=O)N[C@H](CO)C(=O)O)c(N)nc1C(=O)N[C@H](CO)C(=O)O [MB-102, 3,6-diamino-2,5-bis{N-[(1R)-1-carboxy-2-hydroxyethyl]carbamoyl}pyrazine]
Percent of Administered Dose Recovered (urine) [2]: higher
serious adverse events ([4]; 5 healthy adults and 4 adults with Crohn's disease): no serious adverse events
tolerability ([4]; healthy adults and adults with Crohn's disease): well tolerated

Compound: Nc1nc(C(=O)O)c(N)nc1C(=O)O [MB-301, 3,6-diamino-2,5-pyrazine-dicarboxylic acid]
concentration as determined by transdermal fluorescence measurements ([5]; control animals): remained low
concentration as determined by transdermal fluorescence measurements ([5]; injured animals): remained low

Compound: O=C(NCC(O)CO)c1nc(NC[C@H](O)CO)c(C(=O)NCC(O)CO)nc1NC[C@H](O)CO (stereo partly drawn) [MB-404, N^2,N^5-bis(2,3-dihydroxypropyl)-3,6-bis[(S)-2,3-dihydroxypropylamino]pyrazine-2,5-dicarboxamide]
ratio of MB-404 to MB-301 in urine [6]: higher
concentration as determined by transdermal fluorescence measurements ([5]; control animals): remained low
concentration as determined by transdermal fluorescence measurements ([5]; injured animals): increased over time
